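The compound was tested at five concentrations on cells cultured in 96-well plates, with a 48-hour exposure period. GI50: concentration for 50% inhibition of growth.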 Active and inactive are the calls of the source. No stated cut-off is given here; in the data, active = GI50 up to about 1.1 µM and inactive = higher.
Experiments:
Experiment in all cases: NCI tumour cell line growth inhibition, 48 h
LOX IMVI = system: LOX IMVI
U-251 = system: U-251
UO-31 = system: UO-31
UACC-257 = system: UACC-257
A549 = system: A549
786-0 = system: 786-0
NCI-H23 = system: NCI-H23
SF-268 = system: SF-268
SNB-75 = system: SNB-75
SK-MEL-2 = system: SK-MEL-2
OVCAR-4 = system: OVCAR-4
SK-MEL-5 = system: SK-MEL-5
NCI-H522 = system: NCI-H522
MOLT-4 = system: MOLT-4
OVCAR-3 = system: OVCAR-3
SN12C = system: SN12C
Malme-3M = system: Malme-3M
DU-145 = system: DU-145
HOP-92 = system: HOP-92

| SMILES | GI50 (LOX IMVI) | GI50 (U-251) | GI50 (UO-31) | GI50 (UACC-257) | GI50 (A549) | GI50 (786-0) | GI50 (NCI-H23) | GI50 (SF-268) | GI50 (SNB-75) | GI50 (SK-MEL-2) | GI50 (OVCAR-4) | GI50 (SK-MEL-5) | GI50 (NCI-H522) | GI50 (MOLT-4) | GI50 (OVCAR-3) | GI50 (SN12C) | GI50 (Malme-3M) | GI50 (DU-145) | GI50 (HOP-92) |
| --- | --- | --- | --- | --- | --- | --- | --- | --- | --- | --- | --- | --- | --- | --- | --- | --- | --- | --- | --- |
| C[N+](C)(CCNc1ccc(NCC[N+](C)(C)Cc2ccc([N+](=O)[O-])cc2)c2c1C(=O)c1c(O)ccc(O)c1C2=O)Cc1ccc([N+](=O)[O-])cc1 | 4.65 µM (inactive) | > 50 µM (inactive) | 20.4 µM (inactive) | > 50 µM (inactive) | 28.2 µM (inactive) | 8.41 µM (inactive) | > 50 µM (inactive) | > 50 µM (inactive) | > 50 µM (inactive) | > 50 µM (inactive) | > 50 µM (inactive) | 15 µM (inactive) | > 50 µM (inactive) | > 5 µM (inactive) | > 50 µM (inactive) | > 50 µM (inactive) | 30 µM (inactive) | 25.5 µM (inactive) |  |
| CC(=O)OCC1C(C(C)OC(C)=O)CCC2C1CCC1(C)C(OC(C)=O)CCC21 (stereo unspecified) | 14.7 µM (inactive) | 16.6 µM (inactive) | 61.9 µM (inactive) | 16.7 µM (inactive) | 18.9 µM (inactive) | 22.6 µM (inactive) | 24.1 µM (inactive) | 23.9 µM (inactive) |  |  | 19.8 µM (inactive) | 16.6 µM (inactive) | 20.6 µM (inactive) | 16.6 µM (inactive) | 20.5 µM (inactive) | 18 µM (inactive) | 16.9 µM (inactive) | 83.9 µM (inactive) | 17.9 µM (inactive) |
| COc1cc(/C=C/C2=NN(c3cccc(S(=O)(=O)O)c3)C3(C2)C(Cl)C(=O)N3c2nc3ccccc3s2)ccc1O (stereo unspecified) | 11.4 µM (inactive) | 18 µM (inactive) | 16.9 µM (inactive) | 19.9 µM (inactive) | 31 µM (inactive) | 17.4 µM (inactive) | 13 µM (inactive) | 23.8 µM (inactive) | 21.7 µM (inactive) | 39.7 µM (inactive) | 16.1 µM (inactive) | 23.6 µM (inactive) | 13.9 µM (inactive) | 19.2 µM (inactive) |  | 21.9 µM (inactive) | 19.7 µM (inactive) |  | 13.2 µM (inactive) |
| C/C(=C\CO)CC/C=C(\C)CNc1ccccc1 | 57.7 µM (inactive) | 59.4 µM (inactive) | 38.1 µM (inactive) | 27.3 µM (inactive) | 50.8 µM (inactive) | > 100 µM (inactive) | < 0.01 µM (active) | 73.1 µM (inactive) | 0.0498 µM (active) |  |  | 16 µM (inactive) | 23.2 µM (inactive) | 13 µM (inactive) | 18.2 µM (inactive) | 57.5 µM (inactive) | 13.5 µM (inactive) | 37.8 µM (inactive) |  |
| Cc1ccc(NC(=O)C23CC4CC(CC(C4)C2)C3)c(C(=O)NNC(=O)c2ccc(Cl)cc2)c1 | 17 µM (inactive) | 17.2 µM (inactive) | 16.5 µM (inactive) | 2.14 µM (inactive) | 20 µM (inactive) | 20.2 µM (inactive) | 12.9 µM (inactive) | 23.8 µM (inactive) | < 0.01 µM (active) |  | 16.7 µM (inactive) | 18.4 µM (inactive) | 12 µM (inactive) | 21.5 µM (inactive) | 20.7 µM (inactive) | 28.4 µM (inactive) | 18.3 µM (inactive) | 27.6 µM (inactive) | 9.48 µM (inactive) |
| CC(=O)Oc1ccc2cc(Oc3ccc(Cl)c(Cl)c3)c(=O)oc2c1 | 19.7 µM (inactive) | 16 µM (inactive) | 15.5 µM (inactive) | 25.1 µM (inactive) | 31.3 µM (inactive) | 19.5 µM (inactive) | 35.6 µM (inactive) | 34 µM (inactive) | 22 µM (inactive) |  | 41.8 µM (inactive) | 20.3 µM (inactive) | 21.2 µM (inactive) | 18.3 µM (inactive) | 22.9 µM (inactive) | 24.9 µM (inactive) | 29.2 µM (inactive) | 39.3 µM (inactive) | 20.3 µM (inactive) |
| O=C(Nc1cccc(F)c1)c1cc2ccc(O)cc2o/c1=N\c1ccccc1F | 2.96 µM (inactive) | 3.21 µM (inactive) | 4 µM (inactive) | 4.33 µM (inactive) | 3.38 µM (inactive) | 4.99 µM (inactive) | 2.18 µM (inactive) | 2.74 µM (inactive) |  | 4.8 µM (inactive) | 3.56 µM (inactive) | 2.2 µM (inactive) | 2.09 µM (inactive) | 2.29 µM (inactive) | 3.81 µM (inactive) | 5.26 µM (inactive) | 4.3 µM (inactive) | 4.28 µM (inactive) |  |
| Cc1csc2c(=O)n(COCc3ccccc3)c(=O)[nH]c12 | > 100 µM (inactive) | > 100 µM (inactive) | 89.5 µM (inactive) | > 100 µM (inactive) | > 100 µM (inactive) | > 100 µM (inactive) | > 100 µM (inactive) | > 100 µM (inactive) | > 100 µM (inactive) |  | > 100 µM (inactive) | 91.2 µM (inactive) | 94.8 µM (inactive) | > 100 µM (inactive) | > 100 µM (inactive) | > 100 µM (inactive) | > 100 µM (inactive) | > 100 µM (inactive) | 40.8 µM (inactive) |
| O=C(NNC(=S)NC1CCCCC1)c1csc(NC(=S)NC2CCCCC2)n1 | 4.9 µM (inactive) | 5.73 µM (inactive) | 0.948 µM (active) | 3.24 µM (inactive) | 7.89 µM (inactive) | 7.64 µM (inactive) | 10.4 µM (inactive) | 6.21 µM (inactive) | > 10 µM (inactive) | 15.5 µM (inactive) |  | 2.01 µM (inactive) | 12 µM (inactive) | 3.42 µM (inactive) | 4.04 µM (inactive) | 5.6 µM (inactive) | 11.2 µM (inactive) | 14.9 µM (inactive) |  |
| N=C(N)NS(=O)(=O)c1ccc(NC(=O)c2cccc3c(Nc4ccc(S(=O)(=O)N=C(N)N)cc4)c4ccc(Cl)cc4nc23)cc1 | 37.2 µM (inactive) | 37.2 µM (inactive) | 50.8 µM (inactive) | 77.6 µM (inactive) | 53 µM (inactive) | > 100 µM (inactive) | > 100 µM (inactive) | 48.4 µM (inactive) | 30.8 µM (inactive) | > 100 µM (inactive) | 80 µM (inactive) | 28.6 µM (inactive) | 30.4 µM (inactive) | 56.2 µM (inactive) | 60.5 µM (inactive) | 75.5 µM (inactive) | 64.4 µM (inactive) |  | 32.7 µM (inactive) |
| CC(=O)NN(c1ccccc1)C1CCN(c2ccccc2)N1C(C)=O (stereo unspecified) | 4.58 µM (inactive) |  | 3.1 µM (inactive) | > 10 µM (inactive) | > 10 µM (inactive) | > 10 µM (inactive) | > 10 µM (inactive) | 5.07 µM (inactive) | > 10 µM (inactive) | > 10 µM (inactive) | > 10 µM (inactive) | > 10 µM (inactive) | 7.53 µM (inactive) | 4.74 µM (inactive) | > 10 µM (inactive) | > 10 µM (inactive) | 3.48 µM (inactive) | > 10 µM (inactive) |  |
| Cc1oncc1/N=C1\C=C(O)C(=O)c2ccccc21 | 2.73 µM (inactive) | 5.37 µM (inactive) | 14.1 µM (inactive) | 2.77 µM (inactive) | 3.9 µM (inactive) | 18.2 µM (inactive) | 3.79 µM (inactive) | 10.5 µM (inactive) | 13.1 µM (inactive) |  | 3.62 µM (inactive) | 1.95 µM (inactive) | 5.41 µM (inactive) | 2.5 µM (inactive) | 1.9 µM (inactive) | 5.73 µM (inactive) | 3.45 µM (inactive) | 15 µM (inactive) | 10.4 µM (inactive) |
| CC[C@H](C)[C@H](NC(=O)N(CCC#N)CCN(CCN(C(=O)N[C@@H](Cc1ccccc1)C(=O)OC)c1ccccc1)C(=O)N[C@H](C(=O)OC)C(C)C)C(=O)OC | 20.7 µM (inactive) | 16.2 µM (inactive) | 18.1 µM (inactive) | 13.5 µM (inactive) | 32.7 µM (inactive) | 4.68 µM (inactive) | 19.9 µM (inactive) | 21.5 µM (inactive) | 19.9 µM (inactive) | 20 µM (inactive) | 22.4 µM (inactive) | 20.5 µM (inactive) |  | 4.57 µM (inactive) | 17.4 µM (inactive) | 25.6 µM (inactive) | 17.2 µM (inactive) | 20 µM (inactive) | 6.24 µM (inactive) |
| C/C(=N\O)c1cccc(Nc2nc3ccccc3c3occc23)c1 | 13.6 µM (inactive) | 19.4 µM (inactive) | 0.0303 µM (active) | < 0.01 µM (active) | 7.33 µM (inactive) | 12.7 µM (inactive) |  | 11.9 µM (inactive) | 16.2 µM (inactive) |  | 12.4 µM (inactive) | 13.6 µM (inactive) |  | 5.96 µM (inactive) | 13.7 µM (inactive) | 15.5 µM (inactive) | 14.4 µM (inactive) | 13.2 µM (inactive) | 5.3 µM (inactive) |
| CC(C)(C)n1c(=O)[nH]c(=O)n1C(C)(C)C | > 100 µM (inactive) | > 100 µM (inactive) | > 100 µM (inactive) | > 100 µM (inactive) | > 100 µM (inactive) | > 100 µM (inactive) | > 100 µM (inactive) |  | > 100 µM (inactive) | > 100 µM (inactive) | > 100 µM (inactive) | > 100 µM (inactive) |  | > 100 µM (inactive) | > 100 µM (inactive) | > 100 µM (inactive) | > 100 µM (inactive) |  | > 100 µM (inactive) |
| CC(=O)N1c2cc(/N=N/N(C)C)ccc2NC(=O)CC1C (stereo unspecified) |  | > 100 µM (inactive) | > 100 µM (inactive) | > 100 µM (inactive) | > 100 µM (inactive) | > 100 µM (inactive) | > 100 µM (inactive) | > 100 µM (inactive) | > 100 µM (inactive) | > 100 µM (inactive) | > 100 µM (inactive) | > 100 µM (inactive) | > 100 µM (inactive) | > 100 µM (inactive) | > 100 µM (inactive) | > 100 µM (inactive) | > 100 µM (inactive) | > 100 µM (inactive) |  |

Reference: ChEMBL document CHEMBL1201862, “PubChem BioAssay data set” (2004)
